What was measured:
SKOV-3 cells [1] = experiment: MTS cell viability assay, SKOV-3; type: cell-based; conditions: FIG. 1 / FIG. 2
Protocol: SKOV-3 cells were seeded (5,000 cells/well) in complete DMEM (supplemented with 10% fetal bovine serum and 1% antibiotic) and allowed to adhere overnight. Media was replaced with a fresh complete DMEM media containing varying concentrations of the drugs of interest. DMSO was used as control. At a suitable interval (varying from 1 minute to 4 days), the media was replaced again with complete RPMI (supplemented with 10% fetal bovine serum and 1% antibiotic) containing MTS dye (Invitrogen Inc.) and incubated for a period varying from 10 minutes to 1 day. The absorbance of the media was read at varying wavelengths, advantageously at […] in an ELISA reader.
(§1) Viability of cell lines (ECC-1, AN3CA, RL-95-2, SKOV-3, PC-3, MCF-7, SMSKCNR and TCL-1) before and after MeTC7 treatment was determined by the CellTiter 96® AQueous One Solution Assay (Promega Corp, Madison, Wisc.) following the manufacturer's recommendations. This colorimetric assay is based on the ability of mitochondria to reduce a substrate [MTS, 3-(4,5-dimethylthiazol-2-yl)-5-(3-carboxymethoxy phenyl)-2-(4-sulfophenyl)-2H-tetrazolium] into a soluble formazan product quantified by measuring the absorbance at 490 nm. […] The samples were incubated for an additional 4 h before absorbance was measured at 490 nm in an ELISA plate reader (Thermo Labsystems, Waltham, Mass.). […]

VDR-LBD = target: T1, VDR-LBD (Homo sapiens, UniProt P11473)
T1 sequence (P11473 127-423 limits assumed): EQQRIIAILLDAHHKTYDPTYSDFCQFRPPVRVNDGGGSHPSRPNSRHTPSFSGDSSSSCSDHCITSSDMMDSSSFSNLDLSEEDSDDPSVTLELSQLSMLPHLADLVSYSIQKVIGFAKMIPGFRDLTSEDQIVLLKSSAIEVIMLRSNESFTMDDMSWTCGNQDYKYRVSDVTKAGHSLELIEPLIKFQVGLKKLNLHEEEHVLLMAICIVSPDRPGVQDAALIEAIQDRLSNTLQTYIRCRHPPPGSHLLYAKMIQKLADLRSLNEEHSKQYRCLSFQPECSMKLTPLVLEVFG
Text: VDR antagonists disrupt this interaction by a direct or allosteric mode of inhibition.

ECC-1 cells = experiment: MTS cell viability assay, ECC-1; type: cell-based; conditions: FIG. 3
Protocol: ECC-1 cells were seeded (10,000 cells/well) in complete RPMI (supplemented with 10% fetal bovine serum and 1% antibiotic) and allowed to adhere over night. Media was replaced with a fresh complete RPMI media containing varying concentrations of Compound (3). DMSO was used as control. At suitable intervals (varying from 1 minute to 4 days), the media was replaced again with complete RPMI (supplemented with 10% fetal bovine serum and 1% antibiotic) containing MTS dye (Invitrogen Inc) and incubated for period (varying from 10 min to 1 day). The absorbance of the media was read at varying wavelengths, advantageously at […] in an ELISA reader.
as §1, with “nm. The resulting OD is directly proportional to the number of living cells.” for “nm.”

[2] = test system: various cancer cell lines; experiment: viability of a panel of cancer cell lines (CellTiter 96 MTS); type: cell-based; conditions: FIGS. 11A-11C
Protocol: Viability of cell lines (ECC-1, AN3CA, RL-95-2, SKOV-3, PC-3, MCF-7, SMSKCNR and TCL-1) before and after MeTC7 treatment was determined by the CellTiter 96® AQueous One Solution Assay (Promega Corp, Madison, Wisc.) following the manufacturer's recommendations. This colorimetric assay is based on the ability of mitochondria to reduce a substrate [MTS, 3-(4,5-dimethylthiazol-2-yl)-5-(3-carboxymethoxy phenyl)-2-(4-sulfophenyl)-2H-tetrazolium] into a soluble formazan product quantified by measuring the absorbance at 490 nm. The resulting OD is directly proportional to the number of living cells. Briefly, cells (5×10^3/well) were plated into 96 well flat bottom plates (Corning, Inc., Coming, N.Y.) before treatment with various drugs or vehicle (DMSO) as indicated. Following incubation at 37° C. in a cell culture incubator for 20 h MTS reagent was added at a 1:10 dilution to the medium. The samples were incubated for an additional 4 h before absorbance was measured at 490 nm in an ELISA plate reader (Thermo Labsystems, Waltham, Mass.). Experiments were performed in triplicates; data are expressed as the mean of the triplicate determinations (X±SD) of a representative experiment in % of absorbance by samples with untreated cells [=100%]. Similarly, the cell viability of HEPG2 and HEK293 cells was determined except that the drug concentrations were used in the logarithmic values.

DAOY cells xenograft = experiment: medulloblastoma (DAOY) xenograft in nude mice; type: in vivo; conditions: 10 mg/kg bwt i.p., 5× week, 15 days
Protocol: Animal experiments were carried out in the animal facilities of Rhode Island Hospital (RIH), Rhode Island, USA with strict adherence to the guidelines of the Animal Welfare Committee of Rhode Island Hospital (RIH) and Women and Infants Hospital of Rhode Island (Laboratory Animal Protection Approval: A3922-01). Four to six week-old immunodeficient nude mice (NU/NU; strain code 088/homozygous) (Charles River Laboratories, Wilmington, Mass.) were maintained at a temperature of ˜22° C. and a relative humidity of ˜55%, with a 12 h light/dark cycle. DAOY cells were cultured to 80% confluence, washed in PBS twice, harvested by trypsination, pooled in complete medium, washed in PBS twice, and 1×10^6 cells/inoculate were suspended in 0.1 ml of matrigel and inoculated subcutaneously in the flank of mice. Mice with developing tumors after two weeks were randomly assigned to experimental groups. Mice were treated intraperitoneally every day with either vehicle control (control group; 6 animals) or MeTC7 (n=5, 10 mg/kg bwt, 5× week) for 15 days. Mice were weighed and tumor size were measured using a digital caliper every 5th days.

A2058 cells xenograft = experiment: melanoma (A2058) xenograft in nude mice; type: in vivo; conditions: 10 mg/kg bwt i.p., 5× week, 15 days
Protocol: Animal experiments were carried out in the animal facilities of Rhode Island Hospital (RIH), Rhode Island, USA with strict adherence to the guidelines of the Animal Welfare Committee of Rhode Island Hospital (RIH) and Women and Infants Hospital of Rhode Island (Laboratory Animal Protection Approval: A3922-01). Four to six week-old immunodeficient nude mice (NU/ NU; strain code 088/homozygous) (Charles River Laboratories, Wilmington, Mass.) were maintained at a temperature of ˜22° C. and a relative humidity of ˜55%, with a 12 h light/dark cycle. A2058 cells were cultured to 80% confluence, washed in PBS twice, harvested by trypsination, pooled in complete medium, washed in PBS twice, and 1×10^6 cells/inoculate were suspended in 0.1 ml of matrigel and inoculated subcutaneously in the flank of mice. Mice with developing tumors after two weeks were randomly assigned to experimental groups. Mice were treated intraperitoneally every day with either vehicle control (control group; 7 animals) or MeTC7 (10 mg/kg bwt, 5× week) for 15 days. Mice were weighed and tumor size were measured using a digital caliper every 5th days. The percent of animals with tumor size less than 15 mm was calculated by Kaplan-Meier Analysis.

SKOV-3 cells [3] = experiment: inhibition of lipid synthesis in SKOV-3 cells (HPLC of extracted lipids); type: cell-based; conditions: 500 nM, serum free
Protocol: Approximately 3 million cells in serum free conditions were treated with Compound (3) (500 nM). Media was removed, and cells were washed with PBST, trypisinized and collected after centrifugation at 1,000 rpm. The cell pellet was washed with PBST and treated with methanolic HCl for 1 hour. The methanol was removed, and cells were suspended in water and extracted with chloroform. The collected chloroform layer was evaporated with a gentle nitrogen stream, and the residue was analyzed by HPLC.

[4] = test system: SKOV-3 and OVCAR-8 ovarian cancer cells; experiment: apoptosis detection (TUNEL, cytochrome-C release) in ovarian cancer cells; type: cell-based
Protocol: SKOV -3 and OVCAR-8 ovarian cancer cells (10,000 per well) were seeded in a 8 well slide chamber in DMEM complete media and allowed to incubate overnight. Cells were treated with complete media containing either vehicle or MeTC7 (500 nM) and incubated for 12 hours in a humidified incubator maintained at standard conditions. DNA fragmentation was detected using the DeadEndTM Fluorometric TUNEL System assay (Promega, Madison, Wisc.) according to the manufacturer's recommendations. Fluorescence of apoptotic cells (green; labeling of DNA nicks by fluorescein-12-dUTP) and of chromatin (red; staining of chromatin with propidium iodide) was detected by fluorescence microscopy with an inverted microscope (Nikon Eclipse TE2000-E) and a 10× objective. Four randomly chosen microscopic fields were captured. For the detection of the cytochrome-C release as a marker of the apoptosis, the cells were fixed in 5% cold formalin solution and cells were stained with cytochrome-C primary antibody (Santa Cruz Biotechnology, USA) and corresponding fluroescence linked secondary antibody. The images were recorded using an inverted microscope. At least five field were arbitrarily scoped.

[5] = test system: rat aorta rings (microcapillary formation); experiment: ex vivo rat aorta ring assay; conditions: 24 hour treatment, FIG. 9
Protocol: Rat aorta were harvested from the freshly euthanized naïve rats, cleaned and cut into fine rings and placed on matrigel beds prepared 30 min earlier in a 6 well plate. […] The media was replaced with fresh supplemented media and allowed the incubation for next 48 hours, thus affording a strong network of the microcappilary network. […] The phase contrast images were recorded on a pre-cooled inverted NICON microscope.

SKOV-3 tumor xenographs = experiment: SKOV-3 tumor xenograft in nude mice; type: in vivo
Protocol: The effects of exemplary compounds of the invention on the growth of SKOV-3 tumor xenographs in nude mice were investigated. Substantively, four- to six week-old immunodeficient nude mice (NU/NU; strain code 088/homozygous) (Charles River Laboratories, Wilmington, Mass.) were maintained at a temperature of 22±1° C. and a relative humidity of 55±5%, with a 12 h light/dark cycle. SKOV-3 cells were cultured to 80% confluence, washed in PBS twice, harvested by hypsination, pooled in complete medium, washed in PBS twice, and 2×10^6 cells/inoculate were suspended in 0.1 ml of matrigel and inoculated subcutaneously in the flank of mice. Mice with developing tumors after two weeks were randomly assigned to experimental groups. Compound (3) was prepared as a stock solution of 1 mM in 100% EtOH and diluted 1:40 in PBS for administration. […] Mice were weighed and tumor size caculated using a caliper every 5 days.
Four to six week-old immunodeficient nude mice (NU/NU; strain code 088/homozygous) (Charles River Laboratories, Wilmington, Mass.) were maintained at a temperature of −22° C. and a relative humidity of ˜55%, with a 12 h light/dark cycle. […]

[6] = test system: panel of cancer cell lines; experiment: ascorbic acid pretreatment, MTS viability in a panel of cancer cell lines; type: cell-based; conditions: ascorbic acid pretreatment 3 hours
Protocol: Cell lines derived from ovarian cancer, endometrial cancer, breast cancer, prostate cancer and neuroblastoma (5,000 cells/well) were seeded in complete DMEM (supplemented with 10% fetal bovine serum and 1% antibiotic) and allowed to adhere over night. Cells were pretreated with […] of acrorbic acid in 50 μL DMEM media for 3 hours. To the existing media was added DMEM media containing varying concentrations of 2× concentration of Compound (3). DMSO was used as control. At suitable intervals (varying from 1 minute to 4 days), the media was replaced again with complete RPMI (supplemented with 10% fetal bovine serum and 1% antibiotic) containing MTS dye (Invitrogen Inc) and incubated for period (varying from 10 min to 1 day). The absorbance of the media was read at varying wavelengths, advantageously at 492 nm, in an ELISA reader.

HUVEC cells = experiment: wound healing (scratch) assay with HUVEC cells; type: cell-based; conditions: 500 nMoles, 24 hours
Protocol: A 24-well plate was coated with 100 µL of sterile 1% gelatin solution per well. After gelatin coating was hardened, about 100,000 HUVEC cells were seeded per well and allowed to grow to 100% confluence in EBM-2 media. A […] tip was then used to create a vertical scratch wound down the center of each well, and cells were washed once with fresh EBM-2 media. Cell monolayers were then imaged at a 0 h time point using light microscopy on an inverted microscope under sterile conditions. Wound areas were imaged again using light microscopy, and areas were demarcated on representative images.
Floating cells were removed and media was replaced with HUVEC cell media supplemented with vehicle or Compound (3) (500 nMoles) and incubated for 24 hours. The cells were imaged using a pre-cooled inverted NICON microscope (40×).

Compound: CC(C)CCC[C@@H](C)[C@H]1CC[C@H]2C34C=CC5(C[C@@H](OC(=O)CBr)CC[C@]5(C)[C@H]3CC[C@]12C)n1c(=O)n(C)c(=O)n14 (stereo partly shown) [Compound (3)]
- cell viability of SKOV-3 cells (SKOV-3 cells [1]): reduction in cell viability
- VDR antagonism, selectivity (VDR-LBD; FIGS. 10A-10F): selective Vitamin D nuclear receptor (VDR) antagonists
- VDR agonism (coactivator recruitment) (VDR-LBD; in the absence of calcitriol): not a VDR agonist
- cell viability of ECC-1 cells (ECC-1 cells): reduction in cell viability
- growth of cancer cell lines [2]: block growth of various cancer cell lines
- growth of medulloblastoma xenografts (DAOY cells xenograft): reduce the growth of medulloblastoma xenografts in animals
- growth of BRAF mutant melanoma xenografts (A2058 cells xenograft): reduce the growth of BRAF mutant melanoma xenografts in animals
- survival of animals with melanoma xenografts (A2058 cells xenograft; Kaplan-Meier): extend survival in these animals
- lipids appearing at 10.06 minutes (HPLC) (SKOV-3 cells [3]): significantly reduced
- cytochrome-C release ([4]; 500 nM, 12 hours): abundant cytochrome-C release in the cytosol
- apoptosis ([4]; FIGS. 11D-11E): cause apoptosis
- capillary formation and outgrowth [5]: inhibited capillary formation and outgrowth
- tumor burden (SKOV-3 tumor xenographs; 10 mg/kg bwt i.p. every other day, 40 days, FIG. 7): reduces the tumor burden
- growth of ovarian cancer xenografts (SKOV-3 tumor xenographs; 10 mg/kg bwt i.p., 5× week, 31 days, FIG. 11F): reduce the growth of ovarian cancer xenografts in animals
- cytotoxic effects after ascorbic acid pretreatment [6]: reduced the cytotoxic effects
- recovery of the scratched area (HUVEC cells): failed to recover and repopulate the scratched area
